Experimental data reported in the kinase profiling compilation of Christmann-Franck et al. (2016).
pKd: −log10 of the molar value.

What was measured:
Test in all cases: KINOMEscan competition binding
[1] = molecular target: ANKK1 (human) (UniProt Q8NFD2)
[2] = molecular target: BMP2K (human) (UniProt Q9NSY1)
[3] = molecular target: CDC42BPA (human) (UniProt Q5VT25)
[4] = molecular target: CDC42BPG (human) (UniProt Q6DT37)
[5] = molecular target: CDK14 (human) (UniProt O94921)
[6] = molecular target: CDK17 (human) (UniProt Q00537)
[7] = molecular target: CDK3 (human) (UniProt Q00526)
[8] = molecular target: CHUK (human) (UniProt O15111)
[9] = molecular target: CSK (human) (UniProt P41240)
[10] = molecular target: CaMK1 (human) (UniProt Q14012)
[11] = molecular target: EIF2AK2 (human) (UniProt P19525)
[12] = molecular target: EPHA1 (human) (UniProt P21709)
[13] = molecular target: FGFR4 (human) (UniProt P22455)
[14] = molecular target: FLT3 (human), P36888 [ITD]
[15] = molecular target: FLT3 (human), P36888 [K663Q]
[16] = molecular target: FRK (human) (UniProt P42685)
[17] = molecular target: FYN (human) (UniProt P06241)
[18] = molecular target: HIPK1 (human) (UniProt Q86Z02)
[19] = molecular target: HIPK3 (human) (UniProt Q9H422)
[20] = molecular target: IKBKB (human) (UniProt O14920)
[21] = molecular target: MAP2K1 (human) (UniProt Q02750)
[22] = molecular target: MAP2K3 (human) (UniProt P46734)
[23] = molecular target: MAP4K4 (human) (UniProt O95819)
[24] = molecular target: MINK1 (human) (UniProt Q8N4C8)
[25] = molecular target: MKNK1 (human) (UniProt Q9BUB5)
[26] = molecular target: MKNK2 (human) (UniProt Q9HBH9)
[27] = molecular target: MLTK (human) (UniProt Q9NYL2)
[28] = molecular target: MYLK2 (human) (UniProt Q9H1R3)
[29] = molecular target: NTRK3 (human) (UniProt Q16288)
[30] = molecular target: PI4KB (human) (UniProt Q9UBF8)
[31] = molecular target: PIM2 (human) (UniProt Q9P1W9)
[32] = molecular target: PRKACA (human) (UniProt P17612)
[33] = molecular target: RIPK4 (human) (UniProt P57078)
[34] = molecular target: ROS1 (human) (UniProt P08922)
[35] = molecular target: RPS6KA5 KD1 (human) (UniProt O75582)
[36] = molecular target: SLK (human) (UniProt Q9H2G2)
[37] = molecular target: STK33 (human) (UniProt Q9BYT3)
[38] = molecular target: STK4 (human) (UniProt Q13043)
[39] = molecular target: TAOK1 (human) (UniProt Q7L7X3)
[40] = molecular target: TAOK3 (human) (UniProt Q9H2K8)
[41] = molecular target: ULK3 (human) (UniProt Q6PHR2)

CDK14 (human), sequence (O94921 whole entry, looked up): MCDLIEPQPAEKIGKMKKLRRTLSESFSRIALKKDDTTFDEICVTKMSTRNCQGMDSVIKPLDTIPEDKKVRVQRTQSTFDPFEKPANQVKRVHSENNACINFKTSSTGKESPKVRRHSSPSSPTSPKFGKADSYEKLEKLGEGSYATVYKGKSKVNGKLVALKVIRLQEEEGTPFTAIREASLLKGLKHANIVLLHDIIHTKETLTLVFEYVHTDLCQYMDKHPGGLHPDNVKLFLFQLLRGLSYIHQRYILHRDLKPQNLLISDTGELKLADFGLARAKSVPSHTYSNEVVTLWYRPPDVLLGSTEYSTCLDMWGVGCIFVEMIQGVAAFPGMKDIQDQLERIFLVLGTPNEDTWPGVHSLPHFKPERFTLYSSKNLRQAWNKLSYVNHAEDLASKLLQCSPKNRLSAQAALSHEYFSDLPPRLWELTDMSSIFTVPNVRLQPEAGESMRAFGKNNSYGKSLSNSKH
FGFR4 (human), sequence (P22455 whole entry, looked up): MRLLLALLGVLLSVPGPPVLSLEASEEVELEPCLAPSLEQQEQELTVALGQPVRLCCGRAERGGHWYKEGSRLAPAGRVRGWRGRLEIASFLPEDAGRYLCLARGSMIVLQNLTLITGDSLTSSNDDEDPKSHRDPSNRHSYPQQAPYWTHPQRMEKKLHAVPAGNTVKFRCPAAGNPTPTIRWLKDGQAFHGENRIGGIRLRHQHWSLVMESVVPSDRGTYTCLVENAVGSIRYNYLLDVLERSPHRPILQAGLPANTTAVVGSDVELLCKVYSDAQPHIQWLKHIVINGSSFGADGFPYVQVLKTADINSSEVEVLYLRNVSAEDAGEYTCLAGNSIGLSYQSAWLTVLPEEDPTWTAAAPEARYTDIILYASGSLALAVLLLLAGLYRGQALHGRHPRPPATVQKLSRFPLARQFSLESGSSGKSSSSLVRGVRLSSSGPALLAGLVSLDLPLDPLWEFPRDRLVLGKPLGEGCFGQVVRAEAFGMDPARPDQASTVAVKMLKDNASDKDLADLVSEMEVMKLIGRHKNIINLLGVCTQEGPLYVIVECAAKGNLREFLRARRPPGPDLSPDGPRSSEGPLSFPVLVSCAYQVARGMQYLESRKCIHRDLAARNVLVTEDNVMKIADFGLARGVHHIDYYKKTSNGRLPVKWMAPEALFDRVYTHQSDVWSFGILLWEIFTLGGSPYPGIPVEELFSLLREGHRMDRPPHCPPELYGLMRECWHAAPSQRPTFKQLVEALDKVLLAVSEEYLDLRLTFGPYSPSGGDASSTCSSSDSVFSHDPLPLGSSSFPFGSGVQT
CaMK1 (human), sequence (Q14012 whole entry, looked up): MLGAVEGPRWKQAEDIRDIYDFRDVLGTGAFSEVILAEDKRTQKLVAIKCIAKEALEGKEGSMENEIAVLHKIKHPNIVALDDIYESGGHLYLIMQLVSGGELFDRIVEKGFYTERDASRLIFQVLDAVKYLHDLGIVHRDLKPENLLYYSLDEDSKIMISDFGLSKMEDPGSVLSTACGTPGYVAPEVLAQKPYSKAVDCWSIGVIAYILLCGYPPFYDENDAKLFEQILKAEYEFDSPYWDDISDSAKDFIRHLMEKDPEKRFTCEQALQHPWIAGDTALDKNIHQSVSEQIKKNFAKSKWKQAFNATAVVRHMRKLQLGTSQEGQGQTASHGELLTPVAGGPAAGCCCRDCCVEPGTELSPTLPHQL
STK4 (human), sequence (Q13043 whole entry, looked up): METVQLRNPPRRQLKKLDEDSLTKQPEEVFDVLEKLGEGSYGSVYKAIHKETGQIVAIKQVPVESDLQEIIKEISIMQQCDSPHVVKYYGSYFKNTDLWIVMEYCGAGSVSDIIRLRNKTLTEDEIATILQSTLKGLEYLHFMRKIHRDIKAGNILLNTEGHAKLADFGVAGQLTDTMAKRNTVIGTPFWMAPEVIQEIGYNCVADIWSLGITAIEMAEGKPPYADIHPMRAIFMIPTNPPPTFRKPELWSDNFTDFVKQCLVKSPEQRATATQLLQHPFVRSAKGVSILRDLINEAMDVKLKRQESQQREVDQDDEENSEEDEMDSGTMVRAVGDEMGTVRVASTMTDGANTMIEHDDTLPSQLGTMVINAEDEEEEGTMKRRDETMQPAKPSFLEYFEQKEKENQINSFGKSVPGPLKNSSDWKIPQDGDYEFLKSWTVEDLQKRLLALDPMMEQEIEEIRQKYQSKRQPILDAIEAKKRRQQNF
STK33 (human), sequence (Q9BYT3 whole entry, looked up): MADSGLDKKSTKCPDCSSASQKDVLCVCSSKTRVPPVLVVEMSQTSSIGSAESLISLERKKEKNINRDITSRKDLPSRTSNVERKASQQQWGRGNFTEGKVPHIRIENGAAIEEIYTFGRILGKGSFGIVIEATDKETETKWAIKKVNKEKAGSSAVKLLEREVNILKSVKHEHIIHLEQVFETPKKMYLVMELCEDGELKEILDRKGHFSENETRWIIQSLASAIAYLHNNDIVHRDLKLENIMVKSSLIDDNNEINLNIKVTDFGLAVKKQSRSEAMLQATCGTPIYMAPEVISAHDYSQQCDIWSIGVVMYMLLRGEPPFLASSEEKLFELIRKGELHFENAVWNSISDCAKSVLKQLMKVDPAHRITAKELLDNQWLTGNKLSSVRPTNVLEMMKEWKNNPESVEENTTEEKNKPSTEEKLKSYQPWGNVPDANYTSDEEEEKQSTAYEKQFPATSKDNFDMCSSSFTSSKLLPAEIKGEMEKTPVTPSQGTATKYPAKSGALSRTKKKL
MAP2K3 (human), sequence (P46734 whole entry, looked up): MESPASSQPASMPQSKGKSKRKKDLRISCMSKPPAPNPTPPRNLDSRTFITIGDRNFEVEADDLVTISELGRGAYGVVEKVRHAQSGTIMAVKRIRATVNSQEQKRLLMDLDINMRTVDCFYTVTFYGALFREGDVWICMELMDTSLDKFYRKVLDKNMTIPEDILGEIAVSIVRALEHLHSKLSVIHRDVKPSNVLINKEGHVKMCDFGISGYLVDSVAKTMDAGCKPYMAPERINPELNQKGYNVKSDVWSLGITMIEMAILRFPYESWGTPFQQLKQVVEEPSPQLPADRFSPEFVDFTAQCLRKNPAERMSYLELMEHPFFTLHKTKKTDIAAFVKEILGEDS
IKBKB (human), sequence (O14920 whole entry, looked up): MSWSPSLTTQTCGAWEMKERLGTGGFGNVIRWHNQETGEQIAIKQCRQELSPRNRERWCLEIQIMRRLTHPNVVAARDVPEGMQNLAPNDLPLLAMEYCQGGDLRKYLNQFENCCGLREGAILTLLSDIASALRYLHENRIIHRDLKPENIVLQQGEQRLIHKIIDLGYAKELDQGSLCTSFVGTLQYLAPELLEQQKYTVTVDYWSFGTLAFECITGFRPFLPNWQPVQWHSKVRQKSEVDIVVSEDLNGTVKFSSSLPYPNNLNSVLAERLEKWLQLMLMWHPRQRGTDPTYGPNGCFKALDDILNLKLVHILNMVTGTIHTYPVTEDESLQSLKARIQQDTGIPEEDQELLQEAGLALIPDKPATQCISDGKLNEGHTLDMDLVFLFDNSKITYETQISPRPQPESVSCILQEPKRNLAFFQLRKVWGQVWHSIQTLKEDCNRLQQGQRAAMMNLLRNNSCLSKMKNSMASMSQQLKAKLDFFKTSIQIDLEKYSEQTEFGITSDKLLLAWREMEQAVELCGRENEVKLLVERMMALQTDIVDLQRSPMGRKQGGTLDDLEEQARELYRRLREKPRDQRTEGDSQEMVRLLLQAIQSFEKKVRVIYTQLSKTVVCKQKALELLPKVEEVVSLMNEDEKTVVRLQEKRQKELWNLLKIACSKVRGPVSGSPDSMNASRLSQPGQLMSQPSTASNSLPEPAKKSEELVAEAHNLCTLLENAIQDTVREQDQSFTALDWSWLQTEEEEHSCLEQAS
MAP4K4 (human), sequence (O95819 whole entry, looked up): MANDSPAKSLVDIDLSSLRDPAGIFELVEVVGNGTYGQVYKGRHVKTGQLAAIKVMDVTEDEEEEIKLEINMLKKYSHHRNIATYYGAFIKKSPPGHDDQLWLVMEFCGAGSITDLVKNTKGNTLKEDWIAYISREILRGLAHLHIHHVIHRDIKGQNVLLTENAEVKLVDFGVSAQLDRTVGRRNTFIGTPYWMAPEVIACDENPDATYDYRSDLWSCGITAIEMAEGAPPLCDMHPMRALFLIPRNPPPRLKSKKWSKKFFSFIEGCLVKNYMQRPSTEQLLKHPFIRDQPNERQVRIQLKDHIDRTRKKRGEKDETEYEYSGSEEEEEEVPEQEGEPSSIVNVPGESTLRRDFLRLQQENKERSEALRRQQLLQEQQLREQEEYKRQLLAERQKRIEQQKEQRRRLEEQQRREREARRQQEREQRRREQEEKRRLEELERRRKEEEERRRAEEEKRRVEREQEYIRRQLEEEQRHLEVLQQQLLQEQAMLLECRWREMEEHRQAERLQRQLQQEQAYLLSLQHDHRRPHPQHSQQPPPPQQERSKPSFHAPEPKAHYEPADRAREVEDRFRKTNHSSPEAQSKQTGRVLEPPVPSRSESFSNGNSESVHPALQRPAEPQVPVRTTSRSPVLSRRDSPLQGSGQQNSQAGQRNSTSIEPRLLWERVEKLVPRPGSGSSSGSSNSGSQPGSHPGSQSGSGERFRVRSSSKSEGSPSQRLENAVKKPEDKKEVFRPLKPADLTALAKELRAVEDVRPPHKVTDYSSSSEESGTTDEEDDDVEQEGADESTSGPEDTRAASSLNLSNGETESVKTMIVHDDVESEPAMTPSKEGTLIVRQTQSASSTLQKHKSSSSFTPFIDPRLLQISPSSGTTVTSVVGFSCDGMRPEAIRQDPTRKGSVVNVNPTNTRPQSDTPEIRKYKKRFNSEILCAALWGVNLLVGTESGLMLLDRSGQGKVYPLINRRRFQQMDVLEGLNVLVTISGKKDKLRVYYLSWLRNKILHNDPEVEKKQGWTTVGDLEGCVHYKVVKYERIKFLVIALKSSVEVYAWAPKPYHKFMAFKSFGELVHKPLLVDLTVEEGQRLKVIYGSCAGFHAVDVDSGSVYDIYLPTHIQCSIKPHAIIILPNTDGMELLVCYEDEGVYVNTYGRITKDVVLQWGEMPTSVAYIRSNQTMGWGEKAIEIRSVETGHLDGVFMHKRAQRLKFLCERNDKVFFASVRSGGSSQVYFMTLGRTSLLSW

SMILES: COc1cc2ncnc(Oc3cccc(NC(=O)Nc4cc(C(C)(C)C(F)(F)F)on4)c3)c2cc1OC
- pKd [1]: 5.34
- pKd [2]: 4.48
- pKd [3]: 4.52
- pKd [4]: 5.36
- pKd [5]: 6.96
- pKd [6]: 6.20
- pKd [7]: 4.59
- pKd [8]: 6.77
- pKd [9]: 6.15
- pKd [10]: 5.06
- pKd [11]: 4.47
- pKd [12]: 6.85
- pKd [13]: 6.35
- pKd [14]: 7.66
- pKd [15]: 8.38
- pKd [16]: 8.02
- pKd [17]: 6.89
- pKd [18]: 5.33
- pKd [19]: 6.92
- pKd [20]: 6.02
- pKd [21]: 5.15
- pKd [22]: 4.51
- pKd [23]: 7.25
- pKd [24]: 6.44
- pKd [25]: 5.59
- pKd [26]: 7.15
- pKd [27]: 8.09
- pKd [28]: 5.12
- pKd [29]: 5.66
- pKd [30]: 4.54
- pKd [31]: 4.59
- pKd [32]: 4.89
- pKd [33]: 4.80
- pKd [34]: 5.60
- pKd [35]: 4.89
- pKd [36]: 7.70
- pKd [37]: 4.74
- pKd [38]: 4.52
- pKd [39]: 5.68
- pKd [40]: 5.80
- pKd [41]: 4.89
